Tests used:
human body = assay: Patch test, Finn Chamber method; format: in vivo; details: human brachium, ICDRG standard
Experimental: In order to confirm non-toxicity of the polyoxypropylenepolyoxyethylene vitamin E according to the present invention, a patch test was conducted on the human body according to the Finn Chamber method. The subjects of this test were all females 15-35 years old. A sample material was dropped onto the brachium of each of the subjects and a dermicel tape was bonded thereto. The skin irritations were evaluated as a response rate (%) according to an International Contact Dermatitis Research Group (ICDRG) standard after 24 or 48 hour.

rabbits = assay: Primary eye irritation test according to Draize; format: in vivo
Experimental: In order to evaluate the safety of the novel polyoxypropylenepolyoxyethylene vitamin E, a primary eye irritation test was conducted on rabbits as taught by Draize. The polyoxypropylenepolyoxyethylene vitamin E (5) prepared in Example V, polyoxyethylene (12EO) nonylphenylether and polyoxyethylene (20EO) sorbitan monostearate each was diluted with a 10% aqueous glycerine solution to give a 10% sample solution. This test sample was dropped onto one eye of each of 6 rabbits weighing 2-3 kg while the other eye was used as a control. 24 hours later, the average scores were recorded according to the Draize scoring for ocular lesions. If lesions were present, the time was extended; otherwise, observation was ceased.

[1] = Surface tension by the du Nuoy method; format: physicochemical; details: 0.1% aqueous solution, 20° C.
Experimental: At 20° C., 0.1% solutions of samples in water were measured for surface tension according to the du Nuoy method with the aid of a surface tension balance manufactured by Fisher Scientific.

[2] = Anti-oxidation activity: peroxide value of linoleic acid with added sample; details: sample 0.5% in linoleic acid, stored at 40° C.
Experimental: An examination was made of the anti-oxidation activity of the polyoxypropylenepolyoxyethylene vitamin E, using linoleic acid. The linoleic acid used was a reagent purchased from Sigma, U.S.A., comprising linoleic acid 75% and linolenic acid 12.5%.
The polyoxypropylenepolyoxyethylene vitamin E(1) prepared in Example I was added at an amount of 0.5% in the linoleic acid while vitamin E, vitamin E acetate, polyoxyethylene (12EO) vitamin E, polyoxyethylene (20EO) sorbitan monostearate (TWEEN-60), and polyoxyethylene (12EO) nonylphenylether (Igepal-CO880) were also used as references. These samples were stored in an incubator maintained at 40° C. At two days and ten days after the incubation, a peroxide value was determined for each sample. In detail, in a 250 ml Erlenmeyer flask was placed 1.0 g of each of the samples, and 10 ml of chloroform were added to dissolve the sample, after which 15 ml of glacial acetic acid and 1 ml of saturated potassium iodide solution were added and a stopper was put in the flask. After being vigorously shaken, the flask was allowed to stand in a dark place for 5 min. Thereafter, the flask was added with 75 ml of distilled water and vigorously shaken. Free iodine was titrated with a 0.01 N sodium thiosulfate solution, using a starch solution as an indicator. The point at which the solution became colorless was regarded as the end point. The peroxide value was calculated as follows: [formula]
S: Amount of 0.01 N sodium thiosulfate solution consumed by sample (ml)
B: Amount of 0.01 N sodium thiosulfate solution consumed in blank test tube (ml)
F: Factor of 0.01 N sodium thiosulfate solution

[3] = Foaming ability and foam stability, dynamic foam test; format: physicochemical; details: 20° C.; for Foam Stability: 0.1% solution in water, foam at three minutes after stirring; for Foaming Ability: 0.1% solution in water, 1,000 rpm, 1 min
Experimental: The foaming ability and foam stability were determined according to a dynamic foam test. First, in a 2 L scaled cylinder with an inner diameter of 10 cm were charged 40 ml of a 0.1% solution of each sample in water and the solution was stirred at 1,000 rpm 20° C. for 1 min with an agimixer. The height of the foam layer thus formed was regarded as foaming ability while the ratio of the volume of the foam layer formed immediately after the stirring to the same maintained at three minutes after the stirring, was denoted as foam stability.

Molecule | Response Rate, 24 h (human body) [%] | Response Rate, 48 h (human body) [%] | Eye irritation, Avg. Values (Draize scoring for ocular lesions) (rabbits; rabbit, in vivo) | Surface Tension [1] [dyne/cm] | Peroxide Values After 2 days [2] | Peroxide Values After 10 days [2] | Foam Stability [3] [%] | Foaming Ability [3] [cc] | Eye irritation, Avg. Values (Draize scoring for ocular lesions) (rabbits; 10% sample solution in 10% aqueous glycerine, rabbit eye, 24 hours)
polyoxyethylene (12EO) vitamin E [12EO vitamin E] | 1.6 | 0.8 | 0.19 | 56.3 | 26.0 | 124.6 | 46.5 | 125 | 
CC(=O)Oc1c(C)c(C)c2c(c1C)CCC(C)(CCC[C@H](C)CCC[C@H](C)CCCC(C)C)O2 (stereo partly shown) [Acetate of vitamin E, vitamin E acetate] |  |  |  |  | 27.2 | 123.3 |  |  | 
vitamin E |  |  |  |  | 21.6 | 58.9 |  |  | 
polyoxyethylene (12EO) nonylphenylether [12EO nonylphenylether] | 2.4 | 2.0 | 0.35 |  | 28.9 | 178.5 |  |  | 
polyoxyethylene (20EO) sorbitan monostearate [20EO sorbitan mono stearate] | 0.6 | 0.0 |  |  | 25.0 | 126.6 |  |  | 0.16
polyoxyethylene (24EO) cholesterol [24 EO Cholesterol] |  |  |  | 38.4 |  |  | 89.6 | 246 | 

— patent US6355811B1, “Polyoxypropylenepolyethylene vitamin E and preparation thereof” (priority 1998, dated 2002)
